# From patent publication US7807663B2, “Therapeutic agents for diabetes” (Ajinomoto Co., Inc., priority 2003, dated 2010)
# Tested on: adipose cells of rats
# Assay: Evaluation of the sugar transportation activity (2-[14C(U)]-deoxy-D-glucose incorporation)
# Format: cell-based, Wistar rats
# Conditions: concentration with reinforcing effect of 50% of that of insulin (100 nM) = 100%; rat adipose cells, 30 min pre-culture at 37° C., 5 min uptake
# Protocol: 1. Preparation of Adipose Cells of Rats:
# After the decapitation and venesection of 6 male Wistar rats (body weight: 150 to 200 g), an incision was made in the abdomen of each rat to extract 6 g in total of epididymal adipose tissues. The tissues were finely cut into 2 mm×2 mm pieces in 6 ml of KRH (Krebs-Ringer Hepes, composition: 130 mM of sodium chloride, 4.7 mM of potassium chloride, 1.2 mM of potassium dihydrogenphosphate, 1.2 mM of magnesium sulfate, 1 mM of calcium chloride and 25 mM of Hepes, pH=7.6) containing 5% of BSA (bovine serum albumin). 24 mg of collagenase (type I) was added thereto and the digestion treatment was conducted for about 40 minutes to obtain about 6 ml of isolated adipose cells. The collagenase was removed by the buffer exchange. 2% BSA/KRH solution was added to the residue for the re-suspension to obtain 45 ml of an adipose cell suspension.
# 2. Evaluation of the Sugar Transportation Activity:
# The sugar transportation activity of the compound (I) of the present invention was evaluated with reference to a method described in a literature [Annual Review of Biochemistry, Vol. 55, p. 1059 (1986)]. In the test, 200 μL of the adipose cell suspension was poured in each polystyrene test tube, 100 μL of the solution of the test substance (by dilution of 10 mg/mL dimethyl sulfoxide solution with KRH) was added thereto, and the obtained mixture was shaken and then cultured at 37° C. for 30 minutes. The sugar transportation activity was evaluated by measuring the quantity of 2-[^14C(U)]-deoxy-D-glucose incorporated per a unit time. Namely, 2-[^14C(U)]-deoxy-D-glucose was added to the adipose cell suspension after the pre-culture (the final concentration: 0.5 μCi/sample). 5 minutes after, cytochalasin B (final concentration: 10 μM) was added to the mixture to terminate the sugar transportation. After forming a dinonyl phthalate layer, the obtained mixture was centrifuged to separate the adipose cells from the buffer. The quantity of 2-[^14C(U)]-deoxy-D-glucose contained in the adipose cell layer was determined with a liquid scintillation counter to determine the quantity of the incorporated sugar. In this evaluation system, when insulin (100 nM) having the effect of reinforcing the sugar transportation was used, the effect was about 7 times as high as that obtained in the insulin-free control group.
# The results of the evaluation of the sugar transportation activity obtained by using 100 μg/mL of the compound (I) of the present invention are shown in Table 3. The sugar transportation activity in Table 3 was evaluated on the basis of the reinforcing effect of insulin (100 nM). The sugar transportation activity A in Table 3 was determined in terms of the concentration (EC50: μg/mL) of a test compound, having a reinforcing effect corresponding to 50% on the basis of the reinforcing effect of insulin (100 nM) having a reinforcing effect of 100%.
# The symbols in Table 3 are as follows: • No: Compound No. in Tables 1 and 2, and • A: sugar transportation activity.
Molecule,A: sugar transportation activity (EC50) [µg/mL],EC50 [µg/mL]
COCC(=O)N1[C@@H]2CCCC[C@H]2NC2=C(C(=O)NC2)[C@H]1c1ccccc1OC(F)(F)F [Compound 69],2,
CCC(=O)N1[C@@H]2CCCC[C@H]2NC2=C(C(=O)NC2)[C@H]1c1ccc(F)cc1OC [Compound 70],0.82,
CCOCC(=O)N1[C@@H]2CCCC[C@H]2NC2=C(C(=O)NC2)[C@H]1c1ccc(F)cc1OC [Compound 71],7.8,
COc1cc(F)ccc1[C@@H]1C2=C(CNC2=O)N[C@@H]2CCCC[C@H]2N1C(C)=O [Compound 72],8,
COc1cc(Cl)ccc1[C@@H]1C2=C(CNC2=O)N[C@@H]2CCCC[C@H]2N1C(C)=O [Compound 73],6,
COc1ccc(F)cc1[C@@H]1C2=C(CNC2=O)N[C@@H]2CCCC[C@H]2N1C(C)=O [Compound 76],10,
COc1cccc([C@@H]2C3=C(CNC3=O)N[C@@H]3CCCC[C@H]3N2C(C)=O)c1OC [Compound 77],12,
COc1ccc([C@@H]2C3=C(CNC3=O)N[C@@H]3CCCC[C@H]3N2C(C)=O)c(OC)c1 [Compound 78],10,
Cc1ccccc1[C@@H]1C2=C(CNC2=O)N[C@@H]2CCCC[C@H]2N1C(=O)C(F)(F)F [Compound 82],6,
CCC(=O)N1[C@@H]2CCCC[C@H]2NC2=C(C(=O)NC2)[C@H]1c1ccccc1C [Compound 83],2,
CCOCC(=O)N1[C@@H]2CCCC[C@H]2NC2=C(C(=O)NC2)[C@H]1c1ccccc1C [Compound 84],4,
CC(=O)OCC(=O)N1[C@@H]2CCCC[C@H]2NC2=C(C(=O)NC2)[C@H]1c1ccccc1C [Compound 85],8,
Cc1ccccc1[C@@H]1C2=C(CNC2=O)N[C@@H]2CCCC[C@H]2N1C(=O)CO [Compound 86],2.5,
COCC(=O)N1[C@@H]2CCCC[C@H]2NC2=C(C(=O)NC2)[C@H]1c1ccccc1C [Compound 87],6,
CCOC(=O)N1[C@@H]2CCCC[C@H]2NC2=C(C(=O)NC2)[C@H]1c1ccccc1C [Compound 89],7,
COC(=O)N1[C@@H]2CCCC[C@H]2NC2=C(C(=O)NC2)[C@H]1c1ccccc1C [Compound 90],2,
Cc1ccccc1[C@@H]1C2=C(CNC2=O)N(C)[C@@H]2CCCC[C@H]2N1C(=O)CO [Compound 92],1.5,
CCCC(=O)N1[C@@H]2CCCC[C@H]2NC2=C(C(=O)NC2)[C@H]1c1ccccc1CC [Compound 93],5,
CCC(=O)N1[C@@H]2CCCC[C@H]2NC2=C(C(=O)NC2)[C@H]1c1ccccc1CC [Compound 94],2.2,
CCc1ccccc1[C@@H]1C2=C(CNC2=O)N[C@@H]2CCCC[C@H]2N1C(=O)CC(=O)OC [Compound 95],2,
CCc1ccccc1[C@@H]1C2=C(CNC2=O)N[C@@H]2CCCC[C@H]2N1C(=O)COC [Compound 97],6,
CCc1ccccc1[C@@H]1C2=C(CNC2=O)N[C@@H]2CCCC[C@H]2N1C(=O)OC [Compound 99],4,

# Next, values leading:
A: sugar transportation activity (EC50) [µg/mL],EC50 [µg/mL],Molecule
5,,CCc1ccccc1[C@@H]1C2=C(CNC2=O)N(CC)[C@@H]2CCCC[C@H]2N1C(C)=O [Compound 102]
0.8,,O=C1NCC2=C1[C@@H](c1ccccc1C1CC1)N(C(=O)CO)[C@@H]1CCCC[C@H]1N2 [Compound 104]
6,,CC(=O)N1[C@@H]2CCCC[C@H]2NC2=C(C(=O)NC2)[C@H]1c1cccc(F)c1C [Compound 107]
5,,CCOCC(=O)N1[C@@H]2CCCC[C@H]2NC2=C(C(=O)NC2)[C@H]1c1cccc(Cl)c1C [Compound 108]
0.5,,O=C1NCC2=C1[C@@H](c1ccccc1Br)N(C(=O)CC(F)(F)F)[C@@H]1CCCC[C@H]1N2 [Compound 109]
1.5,,CCC(=O)N1[C@@H]2CCCC[C@H]2NC2=C(C(=O)NC2)[C@H]1c1ccccc1Br [Compound 110]
1.5,,COC(=O)CC(=O)N1[C@@H]2CCCC[C@H]2NC2=C(C(=O)NC2)[C@H]1c1ccccc1Br [Compound 111]
8.6,,CCOCC(=O)N1[C@@H]2CCCC[C@H]2NC2=C(C(=O)NC2)[C@H]1c1ccccc1Br [Compound 112]
6,,COCC(=O)N1[C@@H]2CCCC[C@H]2NC2=C(C(=O)NC2)[C@H]1c1ccccc1Br [Compound 113]
6,,CC(=O)N1[C@@H]2CCCC[C@H]2NC2=C(C(=O)NC2)[C@H]1c1ccccc1Br [Compound 114]
3,,CCC(=O)N1[C@@H]2CCCC[C@H]2NC2=C(C(=O)NC2)[C@H]1c1ccccc1Cl [Compound 116]
4,,CCCC(=O)N1[C@@H]2CCCC[C@H]2NC2=C(C(=O)NC2)[C@H]1c1ccccc1Cl [Compound 117]
0.5,,O=C1NCC2=C1[C@@H](c1ccccc1Cl)N(C(=O)CC(F)(F)F)[C@@H]1CCCC[C@H]1N2 [Compound 118]
5,,COCC(=O)N1[C@@H]2CCCC[C@H]2NC2=C(C(=O)NC2)[C@H]1c1ccccc1Cl [Compound 119]
10.7,,CCOCC(=O)N1[C@@H]2CCCC[C@H]2NC2=C(C(=O)NC2)[C@H]1c1ccccc1Cl [Compound 120]
2,,COC(=O)CC(=O)N1[C@@H]2CCCC[C@H]2NC2=C(C(=O)NC2)[C@H]1c1ccccc1Cl [Compound 121]
2.4,,COC(=O)N1[C@@H]2CCCC[C@H]2NC2=C(C(=O)NC2)[C@H]1c1ccccc1Cl [Compound 122]
2,,CCC(=O)N1[C@@H]2CCCC[C@H]2NC2=C(C(=O)NC2)[C@H]1c1ccccc1F [Compound 124]
2,,O=C1NCC2=C1[C@@H](c1ccccc1F)N(C(=O)C1CC1)[C@@H]1CCCC[C@H]1N2 [Compound 125]
2,,CCOCC(=O)N1[C@@H]2CCCC[C@H]2NC2=C(C(=O)NC2)[C@H]1c1ccccc1F [Compound 126]
2,,COC(=O)N1[C@@H]2CCCC[C@H]2NC2=C(C(=O)NC2)[C@H]1c1ccccc1F [Compound 127]
2,,COC(=O)N1[C@@H]2CCCC[C@H]2NC2=C(C(=O)NC2)[C@H]1c1ccccc1 [Compound 133]
12,,CC(=O)N1[C@@H]2CCCC[C@H]2NC2=C(C(=O)NC2)[C@H]1c1ccccc1N [Compound 136]
4.4,,COc1ccc([C@@H]2C3=C(CNC3=O)N[C@@H]3CCCC[C@H]3N2C(C)=O)cc1 [Compound 138]
17,,CC(=O)N1[C@@H]2CCCC[C@H]2NC2=C(C(=O)NC2)[C@H]1c1ccc(Br)cc1 [Compound 139]
6,,CCOCC(=O)N1[C@@H]2CCCC[C@H]2NC2=C(C(=O)NC2)[C@H]1c1ccc(Cl)cc1 [Compound 141]
,19,CC(=O)N1[C@@H]2CCCC[C@H]2NC2=C(C(=O)NC2)[C@H]1c1ccc(Br)s1 [Compound 144]

# Same assay, conditions: insulin 100 nM; rat adipose cells
row,Molecule,effect of reinforcing the sugar transportation relative to insulin-free control group
1,insulin [reference compound],about 7 times
